# System: S aureus A798
# Assay: Minimal inhibitory concentration (MIC), microdilution method in cation-adjusted Mueller-Hinton Broth following NCCLS guidelines
# Format: cell-based
# Conditions: pH of test medium 7.2-7.3
# In short: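 Broth microdilution per NCCLS M7-A4 in cation-adjusted Mueller-Hinton broth at pH 7.2-7.3; MIC reported in mg/l.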
row,MIC,Structure (SMILES)
1,0.25 µg/mL,"CCOc1ccc(N2C[C@@H](CN[C@H]3CCN(c4c(F)cnc5ccc(OC)nc45)C3)OC2=O)cc1 [Example 170, (R)-3-(4-Ethoxy-phenyl)-5-{[(S)-1-(3-fluoro-6-methoxy-[1,5]naphthyridin-4-yl)-pyrrolidin-3-ylamino]-methyl}-oxazolidin-2-one]"
2,4 µg/mL,"COc1ccc2nccc(N3CCN(C[C@@H]4CN(c5ccc(OC)c(C(F)(F)F)c5)C(=O)O4)CC3)c2n1 [Example 33, (R)-5-[4-(6-Methoxy-[1,5]naphthyridin-4-yl)-piperazin-1-ylmethyl]-3-(4-methoxy-3-trifluoromethyl-phenyl)-oxazolidin-2-one]"
3,≤ 0.031 µg/mL,"COc1ccc2nccc(N3CC[C@@H](NC[C@@H]4CN(c5ccc6c(c5)NC(=O)CO6)C(=O)O4)C3)c2n1 [Example 72, 6-((R)-5-{[(R)-1-(6-Methoxy-[1,5]naphthyridin-4-yl)-pyrrolidin-3-ylamino]-methyl}-2-oxo-oxazolidin-3-yl)-4H-benzo[1,4]oxazin-3-one]"
4,≤ 0.031 µg/mL,"COc1ccc2ncc(F)c(N3CCN(C[C@@H]4CN(c5ccc6c(c5)NC(=O)CO6)C(=O)O4)CC3)c2n1 [Example 97, 6-{(R)-5-[4-(3-Fluoro-6-methoxy-[1,5]naphthyridin-4-yl)-piperazin-1-ylmethyl]-2-oxo-oxazolidin-3-yl}-4H-benzo[1,4]oxazin-3-one]"
5,4 µg/mL,"COc1ccc2nccc(N3CC[C@@H]4CN(C[C@@H]5CN(c6ccc7c(c6)OCCO7)C(=O)O5)C[C@@H]43)c2n1 (mixture of isomers) [Example 90, (R)-3-(2,3-Dihydro-benzo[1,4]dioxin-6-yl)-5-{[(3aR*,6aR*)-1-(6-methoxy-[1,5]naphthyridin-4-yl)-hexahydro-pyrrolo[3,4-b]pyrrol-5-yl]-methyl}-oxazolidin-2-one]"
6,≤ 0.031 µg/mL,"COc1ccc2ncc(F)c(N3CC(NC[C@@H]4CN(c5ccc6c(c5)OCCO6)C(=O)O4)C3)c2n1 [Example 47, (R)-3-(2,3-Dihydro-benzo[1,4]dioxin-6-yl)-5-{[1-(3-fluoro-6-methoxy-[1,5]naphthyridin-4-yl)-azetidin-3-ylamino]-methyl}-oxazolidin-2-one]"
7,≤ 0.031 µg/mL,"COc1ccc2nccc(N3CCCN(C(=O)[C@@H]4CN(c5ccc6c(c5)OCCO6)C(=O)O4)CC3)c2n1 [Example 109, (S)-3-(2,3-Dihydro-benzo[1,4]dioxin-6-yl)-5-[4-(6-methoxy-[1,5]naphthyridin-4-yl)-[1,4]diazepane-1-carbonyl]-oxazolidin-2-one]"
8,≤ 0.031 µg/mL,"CCc1ccc(N2C[C@@H](CN(C)C3CN(c4ccnc5ccc(OC)nc45)C3)OC2=O)cc1 [Example 137, (R)-3-(4-Ethyl-phenyl)-5-({[1-(6-methoxy-[1,5]naphthyridin-4-yl)-azetidin-3-yl]-methyl-amino}-methyl)-oxazolidin-2-one]"
9,≤ 0.031 µg/mL,"COc1ccc2nccc(N3CC(NC[C@@H]4CN(c5ccc6c(c5)NC(=O)CS6)C(=O)O4)C3)c2n1 [Example 53, 6-((R)-5-{[1-(6-Methoxy-[1,5]naphthyridin-4-yl)-azetidin-3-ylamino]-methyl}-2-oxo-oxazolidin-3-yl)-4H-benzo[1,4]thiazin-3-one]"
10,≤ 0.031 µg/mL,"COc1ccc2nccc(N3CC[C@H](CNC[C@@H]4CN(c5ccc6c(c5)NC(=O)CO6)C(=O)O4)C3)c2n1 [Example 167, 6-[(R)-5-({[(R)-1-(6-Methoxy-[1,5]naphthyridin-4-yl)-pyrrolidin-3-ylmethyl]amino}-methyl)-2-oxo-oxazolidin-3-yl]-4H-benzo[1,4]oxazin-3-one]"
11,≤ 0.031 µg/mL,"COc1ccc2nccc(N3CCN(C[C@@H]4CN(c5ccc6c(c5)NC(=O)CO6)C(=O)O4)CC3)c2n1 [Example 96, 6-{(R)-5-[4-(6-Methoxy-[1,5]naphthyridin-4-yl)-piperazin-1-ylmethyl]-2-oxo-oxazolidin-3-yl}-4H-benzo[1,4]oxazin-3-one]"
12,0.063 µg/mL,"COc1ccc2nccc(N3CC(N(C)C[C@@H]4CN(c5ccc6scnc6c5)C(=O)O4)C3)c2n1 [Example 146, (R)-3-Benzothiazol-5-yl-5-({[1-(6-methoxy-[1,5]naphthyridin-4-yl)-azetidin-3-yl]-methyl-amino}-methyl)-oxazolidin-2-one]"
13,≤ 0.031 µg/mL,"COc1ccc2nccc(N3CCN(C[C@@H]4CN(c5ccc6c(c5)NC(=O)CS6)C(=O)O4)CC3)c2n1 [Example 22, 6-{(R)-5-[4-(6-Methoxy-[1,5]naphthyridin-4-yl)-piperazin-1-ylmethyl]-2-oxo-oxazolidin-3-yl}-4H-benzo[1,4]thiazin-3-one]"
14,≤ 0.031 µg/mL,"COc1ccc2nccc(N3CC(CNC[C@@H]4CN(c5ccc6c(c5)NC(=O)CS6)C(=O)O4)C3)c2c1 [Example 186, 6-[(R)-5-({[1-(6-Methoxy-quinolin-4-yl)-azetidin-3-ylmethyl]-amino}-methyl)-2-oxo-oxazolidin-3-yl]-4H-benzo[1,4]thiazin-3-one]"
15,≤ 0.031 µg/mL,"COc1ccc2nccc(N3CCN(C[C@@H]4CN(c5ccc(OC(F)F)cc5)C(=O)O4)CC3)c2n1 [Example 20, (R)-3-(4-Difluoromethoxy-phenyl)-5-[4-(6-methoxy-[1,5]naphthyridin-4-yl)-piperazin-1-ylmethyl]-oxazolidin-2-one]"
16,≤ 0.031 µg/mL,"COc1ccc2ncnc(N3CCC(O)(CC4CN(c5ccc6c(c5)OCCO6)C(=O)O4)CC3)c2c1 (racemic) [Example 4, (RS)-3-(2,3-Dihydro-benzo[1,4]dioxin-6-yl)-5-[4-hydroxy-1-(6-methoxy-quinazolin-4-yl)-piperidin-4-ylmethyl]-oxazolidin-2-one]"
17,≤ 0.031 µg/mL,"COc1ccc2ncc(F)c(N3CC[C@H](NC[C@@H]4CN(c5ccc6c(c5)NC(=O)CO6)C(=O)O4)C3)c2n1 [Example 64, 6-((R)-5-{[(S)-1-(3-Fluoro-6-methoxy-[1,5]naphthyridin-4-yl)-pyrrolidin-3-ylamino]-methyl}-2-oxo-oxazolidin-3-yl)-4H-benzo[1,4]oxazin-3-one]"
18,≤ 0.031 µg/mL,"COc1ccc2nccc(N3CCC(CN(C)C[C@@H]4CN(c5ccc6c(c5)NC(=O)CS6)C(=O)O4)C3)c2n1 (mixture of isomers) [Example 117, 6-[(R)-5-({[(RS)-1-(6-Methoxy-[1,5]naphthyridin-4-yl)-pyrrolidin-3-ylmethyl]-methyl-amino}-methyl)-2-oxo-oxazolidin-3-yl]-4H-benzo[1,4]thiazin-3-one]"
19,≤ 0.031 µg/mL,"COc1ccc2ncc(F)c(N3CCCN(C[C@@H]4CN(c5ccc6c(c5)NC(=O)CS6)C(=O)O4)CC3)c2n1 [Example 104, 6-{(R)-5-[4-(3-Fluoro-6-methoxy-[1,5]naphthyridin-4-yl)-[1,4]diazepan-1-ylmethyl]-2-oxo-oxazolidin-3-yl}-4H-benzo[1,4]thiazin-3-one]"
20,≤ 0.031 µg/mL,"COc1ccc2ncc(F)c(N3CCC(NC[C@@H]4CN(c5ccc6c(c5)NC(=O)CS6)C(=O)O4)CC3)c2n1 [Example 122, 6-((R)-5-{[1-(3-Fluoro-6-methoxy-[1,5]naphthyridin-4-yl)-piperidin-4-ylamino]-methyl}-2-oxo-oxazolidin-3-yl)-4H-benzo[1,4]thiazin-3-one]"
21,≤ 0.031 µg/mL,"COc1ccc2ncc(F)c(N3CC(NC[C@@H]4CN(c5cc6c(cc5F)SCC(=O)N6)C(=O)O4)C3)c2n1 [Example 155, 7-Fluoro-6-((R)-5-{[1-(3-fluoro-6-methoxy-[1,5]naphthyridin-4-yl)-azetidin-3-ylamino]-methyl}-2-oxo-oxazolidin-3-yl)-4H-benzo[1,4]thiazin-3-one]"

# From US8217029B2, “Oxazolidinone antibiotics” (Actelion Pharmaceuticals Ltd, priority 2007, dated 2012)
